Patent US12565505B2, “mTORC modulators and uses thereof” (Aeovian Pharmaceuticals, Inc., priority 2019, dated 2026)

How the values were obtained:
[1] = molecular target: T1, mTORC2 (Homo sapiens, UniProt P42345+P62942); assay: Inhibition assay for mTORC2: phosphorylation of pAkt at Ser473, AlphaLISA SureFire in PC3 cells; type: cell-based; conditions: PC3 cells, 24 hours treatment, analogs substituted at C40 and C16 (C16 diastereomer mixtures not isolated), read-out: pIC50 mTORC2 (converted)
T1 construct: endogenous in cells; host or cells: PC3 cells (human prostate adenocarcinoma)
Procedure: The IC50s of the inhibition of mTORC1 and mTORC2 were determined in vitro by determining the phosphorylation of pS6K at position Thr389 (mTORC1 inhibition) and pAkt at Ser473 (mTORC2 inhibition). In vitro studies were performed with AiphaLISA® technology using PC3 cells (Prostate Adenocarcinoma; Human (Homo sapiens)). The cells were seeded in 96 well plates and were treated for 24 hours with the different compounds. […] All analysis were performed using GraphPad Prism 7.0 (GraphPad Software, San Diego, USA). […]

[2] = molecular target: T2, mTORC1 (Homo sapiens, UniProt P42345+P62942); assay: Inhibition assay for mTORC1: phosphorylation of pS6K at Thr389, AlphaLISA SureFire in PC3 cells; type: cell-based; conditions: PC3 cells, 24 hours treatment, pS6K Thr389; analogs substituted at C40 and C16 (C16 diastereomer mixtures not isolated); read-out: pIC50 mTORC1 (converted)
T2 construct: endogenous in cells; host or cells: PC3 cells (human prostate adenocarcinoma)
Procedure: The IC50s of the inhibition of mTORC1 and mTORC2 were determined in vitro by determining the phosphorylation of pS6K at position Thr389 (mTORC1 inhibition) and pAkt at Ser473 (mTORC2 inhibition). In vitro studies were performed with AiphaLISA® technology using PC3 cells (Prostate Adenocarcinoma; Human (Homo sapiens)). The cells were seeded in 96 well plates and were treated for 24 hours with the different compounds. […] All analysis were performed using GraphPad Prism 7.0 (GraphPad Software, San Diego, USA).
Tables 5-7 include PIC50 values for mTORC1 of selected compounds; with compounds having an PIC50 for mTORC1 of >9.5 as A, 8.5 to 9.5 as B, and less than 8.5 as C.

Row | IC50 [1] [nM] | IC50 [2] [nM] | Compound
1 | 1000 to 10000 | < 0.316 | COCCOC1C[C@@H]2CC[C@@H](C)[C@@](O)(O2)C(=O)C(=O)N2CCCCC2C(=O)O[C@H]([C@H](C)C[C@@H]2CC[C@@H](OCCCN3CCN(C)CC3)[C@H](OC)C2)CC(=O)[C@H](C)/C=C(\C)[C@@H](O)[C@@H](OC)C(=O)[C@H](C)C[C@H](C)/C=C/C=C/C=C/1C (stereo partly shown) [Compound 32]
2 | < 1000 | < 0.316 | CO[C@@H]1C[C@H](C[C@@H](C)[C@@H]2CC(=O)[C@H](C)/C=C(\C)[C@@H](O)[C@@H](OC)C(=O)[C@H](C)C[C@H](C)/C=C/C=C/C=C(\C)C(OCCc3ccccc3)C[C@@H]3CC[C@@H](C)[C@@](O)(O3)C(=O)C(=O)N3CCCCC3C(=O)O2)CC[C@H]1OC(=O)N(CCO)CCO (stereo partly drawn) [Compound 112, [(1R,2R,4S)-4-[(2R)-2-[(1R,9S,12S,15R,16E,18R,19R,21R,23S,24E,26E,28E,32S,35R)-1,18-dihydroxy-19-methoxy-15,17,21,23,29,35-hexamethyl-2,3,10,14,20-pentaoxo-30-(2-phenylethoxy)-11,36-dioxa-4-azatricyclo[30.3.1.0^4,9]hexatriaconta-16,24,26,28-tetraen-12-yl]propyl]-2-methoxy-cyclohexyl] N,N-bis(2-hydroxyethyl)carbamate]
3 | > 10000 | < 0.316 | CO[C@@H]1C[C@H](C[C@@H](C)[C@@H]2CC(=O)[C@H](C)/C=C(\C)[C@@H](O)[C@@H](OC)C(=O)[C@H](C)C[C@H](C)/C=C/C=C/C=C(\C)C(OCCO)C[C@@H]3CC[C@@H](C)[C@@](O)(O3)C(=O)C(=O)N3CCCCC3C(=O)O2)CC[C@H]1OCCN1CCOCC1 (stereo partly shown) [Compound 8]
4 | < 1000 | < 0.316 | CO[C@@H]1C[C@H](C[C@@H](C)[C@@H]2CC(=O)[C@H](C)/C=C(\C)[C@@H](O)[C@@H](OC)C(=O)[C@H](C)C[C@H](C)/C=C/C=C/C=C(\C)C(OCCc3ccccc3)C[C@@H]3CC[C@@H](C)[C@@](O)(O3)C(=O)C(=O)N3CCCCC3C(=O)O2)CC[C@H]1OC(=O)NCCN1CCCCC1 (stereo partly shown) [Compound 113]
5 | > 10000 | 0.316 to 3.16 | CO[C@@H]1C[C@H](C[C@@H](C)[C@@H]2CC(=O)[C@H](C)/C=C(\C)[C@@H](O)[C@@H](OC)C(=O)[C@H](C)C[C@H](C)/C=C/C=C/C=C(\C)C(OCCOCCO)C[C@@H]3CC[C@@H](C)[C@@](O)(O3)C(=O)C(=O)N3CCCCC3C(=O)O2)CC[C@H]1OCCO (stereo partly shown) [Compound 69]
6 | 1000 to 10000 | < 0.316 | COCCOC1C[C@@H]2CC[C@@H](C)[C@@](O)(O2)C(=O)C(=O)N2CCCCC2C(=O)O[C@H]([C@H](C)C[C@@H]2CC[C@@H](OCCCN3CCOCC3)[C@H](OC)C2)CC(=O)[C@H](C)/C=C(\C)[C@@H](O)[C@@H](OC)C(=O)[C@H](C)C[C@H](C)/C=C/C=C/C=C/1C (stereo partly shown) [Compound 48]
7 | 1000 to 10000 | < 0.316 | COCCOC1C[C@@H]2CC[C@@H](C)[C@@](O)(O2)C(=O)C(=O)N2CCCCC2C(=O)O[C@H]([C@H](C)C[C@@H]2CC[C@@H](OCCN3CCN(C)CC3)[C@H](OC)C2)CC(=O)[C@H](C)/C=C(\C)[C@@H](O)[C@@H](OC)C(=O)[C@H](C)C[C@H](C)/C=C/C=C/C=C/1C (stereo partly shown) [Compound 47]
8 | < 1000 | < 0.316 | CO[C@@H]1C[C@H](C[C@@H](C)[C@@H]2CC(=O)[C@H](C)/C=C(\C)[C@@H](O)[C@@H](OC)C(=O)[C@H](C)C[C@H](C)/C=C/C=C/C=C(\C)C(OCCc3ccccc3)C[C@@H]3CC[C@@H](C)[C@@](O)(O3)C(=O)C(=O)N3CCCCC3C(=O)O2)CC[C@H]1OCCCN1CCN(C)CC1 (stereo partly shown) [Compound 97]
9 | 1000 to 10000 | < 0.316 | COCCOC1C[C@@H]2CC[C@@H](C)[C@@](O)(O2)C(=O)C(=O)N2CCCCC2C(=O)O[C@H]([C@H](C)C[C@@H]2CC[C@@H](OC(=O)NCCN3CCCCC3)[C@H](OC)C2)CC(=O)[C@H](C)/C=C(\C)[C@@H](O)[C@@H](OC)C(=O)[C@H](C)C[C@H](C)/C=C/C=C/C=C/1C (stereo partly shown) [Compound 57]
10 | 1000 to 10000 | 0.316 to 3.16 | COCCOC1C[C@@H]2CC[C@@H](C)[C@@](O)(O2)C(=O)C(=O)N2CCCCC2C(=O)O[C@H]([C@H](C)C[C@@H]2CC[C@@H](OCCN3C[C@@H](C)O[C@@H](C)C3)[C@H](OC)C2)CC(=O)[C@H](C)/C=C(\C)[C@@H](O)[C@@H](OC)C(=O)[C@H](C)C[C@H](C)/C=C/C=C/C=C/1C (stereo partly shown) [Compound 81]
11 | > 10000 | 0.316 to 3.16 | CO[C@@H]1C[C@H](C[C@@H](C)[C@@H]2CC(=O)[C@H](C)/C=C(\C)[C@@H](O)[C@@H](OC)C(=O)[C@H](C)C[C@H](C)/C=C/C=C/C=C(\C)C(OC(C)C)C[C@@H]3CC[C@@H](C)[C@@](O)(O3)C(=O)C(=O)N3CCCCC3C(=O)O2)CC[C@H]1OC(=O)NCCc1ccccc1 (stereo partly shown) [Compound 80]
12 | 1000 to 10000 | < 0.316 | COCCCOC1C[C@@H]2CC[C@@H](C)[C@@](O)(O2)C(=O)C(=O)N2CCCCC2C(=O)O[C@H]([C@H](C)C[C@@H]2CC[C@@H](OCCO)[C@H](OC)C2)CC(=O)[C@H](C)/C=C(\C)[C@@H](O)[C@@H](OC)C(=O)[C@H](C)C[C@H](C)/C=C/C=C/C=C/1C (stereo partly shown) [Compound 31]
13 | > 10000 | < 0.316 | COCCCO[C@@H]1CC[C@@H](C[C@@H](C)[C@@H]2CC(=O)[C@H](C)/C=C(\C)[C@@H](O)[C@@H](OC)C(=O)[C@H](C)C[C@H](C)/C=C/C=C/C=C(\C)C(OCCOC)C[C@@H]3CC[C@@H](C)[C@@](O)(O3)C(=O)C(=O)N3CCCCC3C(=O)O2)C[C@H]1OC (stereo partly shown) [Compound 14]
14 | 1000 to 10000 | < 0.316 | COCCOC1C[C@@H]2CC[C@@H](C)[C@@](O)(O2)C(=O)C(=O)N2CCCCC2C(=O)O[C@H]([C@H](C)C[C@@H]2CC[C@@H](OC(=O)N(C)CCN3CCOCC3)[C@H](OC)C2)CC(=O)[C@H](C)/C=C(\C)[C@@H](O)[C@@H](OC)C(=O)[C@H](C)C[C@H](C)/C=C/C=C/C=C/1C (stereo partly shown) [Compound 25]
15 | 1000 to 10000 | 0.316 to 3.16 | CO[C@@H]1C[C@H](C[C@@H](C)[C@@H]2CC(=O)[C@H](C)/C=C(\C)[C@@H](O)[C@@H](OC)C(=O)[C@H](C)C[C@H](C)/C=C/C=C/C=C(\C)C(OCCC3CCOCC3)C[C@@H]3CC[C@@H](C)[C@@](O)(O3)C(=O)C(=O)N3CCCCC3C(=O)O2)CC[C@H]1OCCCO (stereo partly shown) [Compound 106]
16 | < 1000 | < 0.316 | CO[C@@H]1C[C@H](C[C@@H](C)[C@@H]2CC(=O)[C@H](C)/C=C(\C)[C@@H](O)[C@@H](OC)C(=O)[C@H](C)C[C@H](C)/C=C/C=C/C=C(\C)C(OCc3ccccc3)C[C@@H]3CC[C@@H](C)[C@@](O)(O3)C(=O)C(=O)N3CCCCC3C(=O)O2)CC[C@H]1OC(=O)NCCN1CCOCC1 (stereo partly shown) [Compound 115]
17 | > 10000 | < 0.316 | CO[C@@H]1C[C@H](C[C@@H](C)[C@@H]2CC(=O)[C@H](C)/C=C(\C)[C@@H](O)[C@@H](OC)C(=O)[C@H](C)C[C@H](C)/C=C/C=C/C=C(\C)C(OCCCO)C[C@@H]3CC[C@@H](C)[C@@](O)(O3)C(=O)C(=O)N3CCCCC3C(=O)O2)CC[C@H]1OCCO (stereo partly shown) [Compound 15]
18 | 1000 to 10000 | < 0.316 | CO[C@@H]1C[C@H](C[C@@H](C)[C@@H]2CC(=O)[C@H](C)/C=C(\C)[C@@H](O)[C@@H](OC)C(=O)[C@H](C)C[C@H](C)/C=C/C=C/C=C(\C)C(OCCCCO)C[C@@H]3CC[C@@H](C)[C@@](O)(O3)C(=O)C(=O)N3CCCC[C@H]3C(=O)O2)CC[C@H]1OCCCO (mixture of isomers) [Compound 68]
19 | 1000 to 10000 | 0.316 to 3.16 | CO[C@@H]1C[C@H](C[C@@H](C)[C@@H]2CC(=O)[C@H](C)/C=C(\C)[C@@H](O)[C@@H](OC)C(=O)[C@H](C)C[C@H](C)/C=C/C=C/C=C(\C)C(OCC3CCOCC3)C[C@@H]3CC[C@@H](C)[C@@](O)(O3)C(=O)C(=O)N3CCCCC3C(=O)O2)CC[C@H]1OCCO (stereo partly shown) [Compound 86]
20 | 1000 to 10000 | 0.316 to 3.16 | CO[C@@H]1C[C@H](C[C@@H](C)[C@@H]2CC(=O)[C@H](C)/C=C(\C)[C@@H](O)[C@@H](OC)C(=O)[C@H](C)C[C@H](C)/C=C/C=C/C=C(\C)C(OCC(C)(C)O)C[C@@H]3CC[C@@H](C)[C@@](O)(O3)C(=O)C(=O)N3CCCCC3C(=O)O2)CC[C@H]1OCCO (stereo partly shown) [Compound 91]
21 | < 1000 | < 0.316 | CO[C@@H]1C[C@H](C[C@@H](C)[C@@H]2CC(=O)[C@H](C)/C=C(\C)[C@@H](O)[C@@H](OC)C(=O)[C@H](C)C[C@H](C)/C=C/C=C/C=C(\C)C(OCCc3ccccc3)C[C@@H]3CC[C@@H](C)[C@@](O)(O3)C(=O)C(=O)N3CCCCC3C(=O)O2)CC[C@H]1OC(=O)NCCN1CCOCC1 (stereo partly shown) [Compound 93]
22 | 1000 to 10000 | 0.316 to 3.16 | CO[C@@H]1C[C@H](C[C@@H](C)[C@@H]2CC(=O)[C@H](C)/C=C(\C)[C@@H](O)[C@@H](OC)C(=O)[C@H](C)C[C@H](C)/C=C/C=C/C=C(\C)C(OCC(C)(C)O)C[C@@H]3CC[C@@H](C)[C@@](O)(O3)C(=O)C(=O)N3CCCCC3C(=O)O2)CC[C@H]1OCCCO (stereo partly shown) [Compound 98]
23 | 1000 to 10000 | 0.316 to 3.16 | CO[C@@H]1C[C@H](C[C@@H](C)[C@@H]2CC(=O)[C@H](C)/C=C(\C)[C@@H](O)[C@@H](OC)C(=O)[C@H](C)C[C@H](C)/C=C/C=C/C=C(\C)C(OCCO)C[C@@H]3CC[C@@H](C)[C@@](O)(O3)C(=O)C(=O)N3CCCCC3C(=O)O2)CC[C@H]1OC(=O)NCCn1cnnn1 (stereo partly shown) [Compound 89]
